Paper PMC6458995, “MAP4K4 Inhibition Promotes Survival of Human Stem Cell-Derived Cardiomyocytes and Reduces Infarct Size In Vivo” (Cell Stem Cell, 2019)

How the values were obtained:
Assay in all cases: Dundee kinase panel
Format in all cases: biochemical
Conditions in all cases: for remaining activity at 1 µM: read-out: residual activity
OSR1 = target: T1, OSR1 (Homo sapiens, UniProt O95747)
T1 construct: lines 1-140) and Reaction Biology
Protocol: (§1) Compounds were screened at 1 μM. For key hits, pIC50 values were then determined by HTRF as above. […] Stability in mouse and human liver microsomes was determined by Cyprotex.

FGF-R1 = target: T2, FGF-R1 (Homo sapiens, UniProt P11362)
T2 construct: lines 1-140) and Reaction Biology
Protocol: as §1

JAK2 = target: T3, JAK2 (Homo sapiens, UniProt O60674)
T3 construct: lines 1-140) and Reaction Biology
Protocol: as §1

PKD1 = target: T4, PKD1 (Homo sapiens, UniProt Q15139)
T4 construct: lines 1-140) and Reaction Biology
T4 sequence (Q15139 1-912): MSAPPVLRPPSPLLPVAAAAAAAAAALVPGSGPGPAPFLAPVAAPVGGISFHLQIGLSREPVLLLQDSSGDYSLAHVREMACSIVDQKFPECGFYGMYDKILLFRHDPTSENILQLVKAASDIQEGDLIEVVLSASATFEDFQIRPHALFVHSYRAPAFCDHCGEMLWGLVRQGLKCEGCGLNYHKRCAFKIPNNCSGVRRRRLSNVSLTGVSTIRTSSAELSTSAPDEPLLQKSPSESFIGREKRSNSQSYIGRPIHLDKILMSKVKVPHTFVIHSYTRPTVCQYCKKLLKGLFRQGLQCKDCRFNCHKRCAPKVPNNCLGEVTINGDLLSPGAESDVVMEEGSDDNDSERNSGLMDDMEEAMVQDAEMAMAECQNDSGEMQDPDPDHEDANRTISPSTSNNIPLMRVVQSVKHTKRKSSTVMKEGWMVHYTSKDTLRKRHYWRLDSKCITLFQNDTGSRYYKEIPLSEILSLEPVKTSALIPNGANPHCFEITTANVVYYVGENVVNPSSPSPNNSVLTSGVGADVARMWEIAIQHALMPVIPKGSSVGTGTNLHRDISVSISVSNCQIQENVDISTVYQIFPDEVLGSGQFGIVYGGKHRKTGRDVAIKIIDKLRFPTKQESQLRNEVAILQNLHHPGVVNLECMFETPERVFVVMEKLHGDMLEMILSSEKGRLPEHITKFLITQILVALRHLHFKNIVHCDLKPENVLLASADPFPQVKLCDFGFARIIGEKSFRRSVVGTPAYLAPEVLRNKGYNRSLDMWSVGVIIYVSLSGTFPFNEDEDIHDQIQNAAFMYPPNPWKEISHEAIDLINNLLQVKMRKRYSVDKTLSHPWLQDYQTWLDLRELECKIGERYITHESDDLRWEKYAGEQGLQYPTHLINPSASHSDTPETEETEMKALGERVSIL
Protocol: as §1

MARK2 = target: T5, MARK2 (Homo sapiens, UniProt Q7KZI7)
T5 construct: lines 1-140) and Reaction Biology
Protocol: as §1

PAK4 = target: T6, PAK4 (Homo sapiens, UniProt O96013)
T6 construct: lines 1-140) and Reaction Biology
Protocol: as §1

CDK2-Cyclin A = target: T7, CDK2-Cyclin A (Homo sapiens, UniProt P24941)
T7 construct: lines 1-140) and Reaction Biology
Protocol: as §1

HIPK2 = target: T8, HIPK2 (Homo sapiens, UniProt Q9H2X6)
T8 construct: lines 1-140) and Reaction Biology
Protocol: as §1

SIK2 = target: T9, SIK2 (Homo sapiens, UniProt Q9H0K1)
T9 construct: lines 1-140) and Reaction Biology
Protocol: as §1

IR = target: T10, IR (Homo sapiens, UniProt P06213)
T10 construct: lines 1-140) and Reaction Biology
Protocol: as §1

DYRK3 = target: T11, DYRK3 (Homo sapiens, UniProt O43781)
T11 construct: lines 1-140) and Reaction Biology
T11 sequence (O43781 1-588): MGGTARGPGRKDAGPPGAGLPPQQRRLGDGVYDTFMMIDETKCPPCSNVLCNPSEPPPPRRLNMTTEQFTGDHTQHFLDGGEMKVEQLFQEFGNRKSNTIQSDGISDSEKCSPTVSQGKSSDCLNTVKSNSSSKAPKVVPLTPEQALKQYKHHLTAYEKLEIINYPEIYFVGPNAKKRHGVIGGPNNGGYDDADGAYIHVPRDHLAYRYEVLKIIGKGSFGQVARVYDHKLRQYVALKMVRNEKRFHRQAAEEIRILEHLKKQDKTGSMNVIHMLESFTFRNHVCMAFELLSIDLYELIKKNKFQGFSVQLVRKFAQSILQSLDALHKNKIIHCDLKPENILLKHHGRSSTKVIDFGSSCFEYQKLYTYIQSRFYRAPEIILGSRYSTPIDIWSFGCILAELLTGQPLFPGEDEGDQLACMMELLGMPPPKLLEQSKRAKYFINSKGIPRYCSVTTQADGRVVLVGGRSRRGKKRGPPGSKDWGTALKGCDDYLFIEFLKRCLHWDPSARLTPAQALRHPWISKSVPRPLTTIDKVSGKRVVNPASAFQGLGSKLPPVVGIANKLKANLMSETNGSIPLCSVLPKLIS
Protocol: as §1

TLK1 = target: T12, TLK1 (Homo sapiens, UniProt Q9UKI8)
T12 construct: lines 1-140) and Reaction Biology
T12 sequence (Q9UKI8 1-766): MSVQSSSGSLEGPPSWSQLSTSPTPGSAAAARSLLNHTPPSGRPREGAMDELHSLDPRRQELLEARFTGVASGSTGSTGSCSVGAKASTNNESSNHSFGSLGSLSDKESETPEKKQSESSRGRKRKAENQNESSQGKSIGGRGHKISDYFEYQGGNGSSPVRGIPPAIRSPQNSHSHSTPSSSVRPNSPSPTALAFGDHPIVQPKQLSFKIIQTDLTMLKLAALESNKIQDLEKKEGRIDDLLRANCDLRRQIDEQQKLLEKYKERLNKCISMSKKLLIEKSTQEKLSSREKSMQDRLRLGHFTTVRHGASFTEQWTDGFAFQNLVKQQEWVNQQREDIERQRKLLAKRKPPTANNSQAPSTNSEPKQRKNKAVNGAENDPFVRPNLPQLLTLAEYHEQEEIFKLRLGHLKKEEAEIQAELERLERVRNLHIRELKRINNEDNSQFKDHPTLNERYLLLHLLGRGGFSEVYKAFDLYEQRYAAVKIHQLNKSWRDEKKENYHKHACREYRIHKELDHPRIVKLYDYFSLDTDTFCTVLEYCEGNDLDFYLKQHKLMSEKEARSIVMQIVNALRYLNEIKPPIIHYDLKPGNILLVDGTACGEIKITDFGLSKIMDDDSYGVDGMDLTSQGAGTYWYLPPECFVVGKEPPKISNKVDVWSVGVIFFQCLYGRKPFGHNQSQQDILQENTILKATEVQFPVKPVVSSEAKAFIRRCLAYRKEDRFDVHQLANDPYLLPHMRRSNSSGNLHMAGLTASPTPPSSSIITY
Protocol: as §1

PAK6 = target: T13, PAK6 (Homo sapiens, UniProt Q9NQU5)
T13 construct: lines 1-140) and Reaction Biology
Protocol: as §1

T13 sequence (Q9NQU5 whole entry): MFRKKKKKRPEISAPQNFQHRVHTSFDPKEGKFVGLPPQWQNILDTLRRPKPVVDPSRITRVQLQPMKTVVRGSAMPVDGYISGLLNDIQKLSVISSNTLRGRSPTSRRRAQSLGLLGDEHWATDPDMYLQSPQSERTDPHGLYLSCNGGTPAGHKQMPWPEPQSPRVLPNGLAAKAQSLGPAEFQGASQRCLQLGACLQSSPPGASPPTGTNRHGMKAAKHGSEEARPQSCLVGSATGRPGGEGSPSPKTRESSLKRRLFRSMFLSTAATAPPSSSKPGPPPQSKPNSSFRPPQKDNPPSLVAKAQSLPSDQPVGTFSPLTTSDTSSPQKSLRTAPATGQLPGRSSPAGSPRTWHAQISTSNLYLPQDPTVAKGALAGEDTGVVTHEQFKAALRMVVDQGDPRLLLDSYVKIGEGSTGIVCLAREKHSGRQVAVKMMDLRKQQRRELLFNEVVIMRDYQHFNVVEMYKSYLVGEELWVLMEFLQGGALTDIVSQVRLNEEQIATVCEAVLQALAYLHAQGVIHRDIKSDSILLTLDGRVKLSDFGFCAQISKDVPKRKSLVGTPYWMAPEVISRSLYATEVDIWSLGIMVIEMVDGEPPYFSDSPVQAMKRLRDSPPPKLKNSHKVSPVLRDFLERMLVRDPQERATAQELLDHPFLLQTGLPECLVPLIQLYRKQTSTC
T2 sequence (P11362 22-822): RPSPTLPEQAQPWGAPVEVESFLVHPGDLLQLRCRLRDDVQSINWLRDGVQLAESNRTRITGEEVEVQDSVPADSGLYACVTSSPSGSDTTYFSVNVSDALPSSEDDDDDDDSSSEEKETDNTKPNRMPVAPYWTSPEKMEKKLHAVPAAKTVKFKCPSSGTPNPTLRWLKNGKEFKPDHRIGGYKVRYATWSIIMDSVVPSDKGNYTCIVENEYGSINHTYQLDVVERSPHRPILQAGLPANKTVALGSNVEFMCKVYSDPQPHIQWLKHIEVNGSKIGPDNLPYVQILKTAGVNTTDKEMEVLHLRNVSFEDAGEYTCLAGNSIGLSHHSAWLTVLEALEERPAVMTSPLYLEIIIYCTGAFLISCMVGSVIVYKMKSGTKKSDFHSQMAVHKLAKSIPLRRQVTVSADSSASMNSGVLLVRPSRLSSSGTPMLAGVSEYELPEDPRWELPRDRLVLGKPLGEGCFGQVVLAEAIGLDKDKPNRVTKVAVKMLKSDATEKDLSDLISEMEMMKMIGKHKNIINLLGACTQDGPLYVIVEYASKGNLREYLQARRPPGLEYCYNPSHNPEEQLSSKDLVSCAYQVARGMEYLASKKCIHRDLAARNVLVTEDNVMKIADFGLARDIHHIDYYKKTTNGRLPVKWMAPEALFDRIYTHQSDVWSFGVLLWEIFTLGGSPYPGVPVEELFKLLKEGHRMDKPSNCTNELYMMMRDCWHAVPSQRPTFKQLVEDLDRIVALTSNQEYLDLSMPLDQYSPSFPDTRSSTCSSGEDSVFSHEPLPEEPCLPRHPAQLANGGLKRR
T10 sequence (P06213 28-1382): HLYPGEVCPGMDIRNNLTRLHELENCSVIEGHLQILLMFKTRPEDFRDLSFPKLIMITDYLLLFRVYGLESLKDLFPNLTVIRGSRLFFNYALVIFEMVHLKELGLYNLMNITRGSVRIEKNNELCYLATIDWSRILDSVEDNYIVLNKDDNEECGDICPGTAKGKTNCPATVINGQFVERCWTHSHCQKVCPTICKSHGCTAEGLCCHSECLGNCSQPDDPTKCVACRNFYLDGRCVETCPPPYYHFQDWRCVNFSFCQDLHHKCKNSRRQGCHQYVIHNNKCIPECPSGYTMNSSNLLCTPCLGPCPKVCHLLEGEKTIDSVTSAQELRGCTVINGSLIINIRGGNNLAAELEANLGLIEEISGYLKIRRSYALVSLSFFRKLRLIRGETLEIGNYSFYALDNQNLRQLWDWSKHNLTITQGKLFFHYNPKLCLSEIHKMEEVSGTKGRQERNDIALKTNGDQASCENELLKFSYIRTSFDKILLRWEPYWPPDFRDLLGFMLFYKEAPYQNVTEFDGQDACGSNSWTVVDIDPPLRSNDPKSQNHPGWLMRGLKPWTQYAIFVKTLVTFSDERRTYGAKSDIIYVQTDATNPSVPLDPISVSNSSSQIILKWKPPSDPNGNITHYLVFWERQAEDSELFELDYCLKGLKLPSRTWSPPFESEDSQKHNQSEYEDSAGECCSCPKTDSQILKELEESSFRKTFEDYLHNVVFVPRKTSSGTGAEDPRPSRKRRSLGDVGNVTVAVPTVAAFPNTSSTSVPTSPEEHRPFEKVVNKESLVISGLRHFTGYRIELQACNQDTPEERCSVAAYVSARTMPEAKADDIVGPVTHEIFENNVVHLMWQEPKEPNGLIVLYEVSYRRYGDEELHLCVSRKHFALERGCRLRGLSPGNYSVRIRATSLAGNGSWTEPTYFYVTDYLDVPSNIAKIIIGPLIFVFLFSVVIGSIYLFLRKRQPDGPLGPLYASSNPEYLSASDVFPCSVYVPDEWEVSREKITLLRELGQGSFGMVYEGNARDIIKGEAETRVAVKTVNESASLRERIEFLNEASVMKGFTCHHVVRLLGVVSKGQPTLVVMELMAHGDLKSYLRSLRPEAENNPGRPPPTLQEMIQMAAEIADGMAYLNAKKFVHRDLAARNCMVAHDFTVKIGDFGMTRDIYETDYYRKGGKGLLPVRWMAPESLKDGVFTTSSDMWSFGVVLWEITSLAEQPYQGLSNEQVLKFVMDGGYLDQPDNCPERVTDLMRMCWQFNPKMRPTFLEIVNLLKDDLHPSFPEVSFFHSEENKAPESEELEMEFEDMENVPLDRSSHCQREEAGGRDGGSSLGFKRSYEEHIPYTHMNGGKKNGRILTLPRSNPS
T3 sequence (O60674 whole entry): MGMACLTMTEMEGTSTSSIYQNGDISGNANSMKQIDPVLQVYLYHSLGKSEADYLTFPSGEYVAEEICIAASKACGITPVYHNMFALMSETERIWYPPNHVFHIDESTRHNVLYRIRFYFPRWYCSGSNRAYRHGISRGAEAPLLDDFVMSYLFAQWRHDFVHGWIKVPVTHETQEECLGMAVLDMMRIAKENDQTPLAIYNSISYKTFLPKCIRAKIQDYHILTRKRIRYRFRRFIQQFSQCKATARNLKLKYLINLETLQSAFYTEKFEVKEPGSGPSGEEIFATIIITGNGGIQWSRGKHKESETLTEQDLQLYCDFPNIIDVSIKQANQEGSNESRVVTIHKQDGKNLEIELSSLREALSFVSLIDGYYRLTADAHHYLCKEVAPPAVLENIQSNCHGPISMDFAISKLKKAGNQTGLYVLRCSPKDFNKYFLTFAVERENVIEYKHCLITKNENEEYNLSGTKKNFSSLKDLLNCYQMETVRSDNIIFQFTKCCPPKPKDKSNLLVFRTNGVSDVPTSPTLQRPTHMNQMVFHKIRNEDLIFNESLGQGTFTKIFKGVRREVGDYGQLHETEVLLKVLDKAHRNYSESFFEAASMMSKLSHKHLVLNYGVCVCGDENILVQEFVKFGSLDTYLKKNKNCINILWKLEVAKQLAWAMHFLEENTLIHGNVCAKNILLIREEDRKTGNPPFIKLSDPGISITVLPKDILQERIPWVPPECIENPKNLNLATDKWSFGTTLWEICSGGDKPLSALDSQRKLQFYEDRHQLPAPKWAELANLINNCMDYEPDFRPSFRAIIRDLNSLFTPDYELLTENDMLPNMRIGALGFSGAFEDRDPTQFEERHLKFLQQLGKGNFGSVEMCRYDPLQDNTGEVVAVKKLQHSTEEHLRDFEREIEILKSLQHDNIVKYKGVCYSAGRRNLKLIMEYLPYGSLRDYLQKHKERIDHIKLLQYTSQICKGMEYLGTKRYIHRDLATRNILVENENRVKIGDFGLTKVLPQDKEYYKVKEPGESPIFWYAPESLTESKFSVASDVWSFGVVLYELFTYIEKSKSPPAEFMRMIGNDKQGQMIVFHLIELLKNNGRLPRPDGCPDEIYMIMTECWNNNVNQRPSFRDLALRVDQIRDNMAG
T5 sequence (Q7KZI7 whole entry): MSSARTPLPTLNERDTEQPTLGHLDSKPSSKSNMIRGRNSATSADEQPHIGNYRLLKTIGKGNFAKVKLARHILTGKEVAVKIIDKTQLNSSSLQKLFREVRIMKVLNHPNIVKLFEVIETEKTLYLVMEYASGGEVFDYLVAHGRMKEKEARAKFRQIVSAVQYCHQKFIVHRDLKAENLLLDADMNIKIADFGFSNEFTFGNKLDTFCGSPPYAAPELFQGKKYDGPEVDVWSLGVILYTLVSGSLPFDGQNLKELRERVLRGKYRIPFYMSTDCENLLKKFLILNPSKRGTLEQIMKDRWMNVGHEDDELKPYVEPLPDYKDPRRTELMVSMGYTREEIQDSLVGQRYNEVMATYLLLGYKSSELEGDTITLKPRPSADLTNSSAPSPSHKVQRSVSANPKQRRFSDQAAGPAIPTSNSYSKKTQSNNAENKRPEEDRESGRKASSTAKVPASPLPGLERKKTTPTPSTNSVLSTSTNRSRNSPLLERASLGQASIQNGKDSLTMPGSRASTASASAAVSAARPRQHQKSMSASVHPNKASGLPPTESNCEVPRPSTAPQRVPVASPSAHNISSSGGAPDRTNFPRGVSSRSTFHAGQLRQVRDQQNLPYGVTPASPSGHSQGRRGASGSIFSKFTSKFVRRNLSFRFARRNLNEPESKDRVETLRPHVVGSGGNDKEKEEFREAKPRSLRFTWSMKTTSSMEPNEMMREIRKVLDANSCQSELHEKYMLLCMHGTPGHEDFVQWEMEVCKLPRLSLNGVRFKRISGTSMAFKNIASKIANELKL

Q: What does the source list for `O=C1Cc2c([nH]c3ccc(Br)cc23)-c2ccccc2N1` [Kenpaullone]?
A: remaining activity at 1 µM (OSR1): 52%; remaining activity at 1 µM (FGF-R1): 108%; remaining activity at 1 µM (JAK2): 105%; remaining activity at 1 µM (PKD1): 100%; remaining activity at 1 µM (MARK2): 35%; remaining activity at 1 µM (PAK4): 104%; remaining activity at 1 µM (CDK2-Cyclin A): 93%; remaining activity at 1 µM (HIPK2): 103%; remaining activity at 1 µM (SIK2): 13%; remaining activity at 1 µM (IR): 43%; remaining activity at 1 µM (DYRK3): 72%; remaining activity at 1 µM (TLK1): 95%; remaining activity at 1 µM (PAK6): 32%

Q: How did the remaining activity at 1 µM (OSR1) turn out when `COCCOc1ccc(-c2cn(-c3ccccc3)c3nc[nH]c(=O)c23)cc1` [DMX-5804, 5-[4-(2-methoxy-ethoxy)-phenyl]-7-phenyl-3,7-dihydro-pyrrolo[2,3-d]pyrimidin-4-one] was run?
A: The remaining activity at 1 µM was 128%.

Q: What about the remaining activity at 1 µM (FGF-R1) of the same compound?
A: Its remaining activity at 1 µM is 69%.

Q: What about the remaining activity at 1 µM (JAK2) of the same compound?
A: Its remaining activity at 1 µM is 70%.

Q: What about the remaining activity at 1 µM (PKD1) of the same compound?
A: The remaining activity at 1 µM was 102%.

Q: And the remaining activity at 1 µM (MARK2)?
A: Its remaining activity at 1 µM is 98%.

Q: And the remaining activity at 1 µM (PAK4)?
A: The remaining activity at 1 µM was 100%.

Q: And the remaining activity at 1 µM (CDK2-Cyclin A)?
A: Its remaining activity at 1 µM is 104%.

Q: And the remaining activity at 1 µM (HIPK2)?
A: Its remaining activity at 1 µM is 102%.

Q: What about the remaining activity at 1 µM (SIK2) of the same compound?
A: Its remaining activity at 1 µM is 90%.

Q: And the remaining activity at 1 µM (IR)?
A: Its remaining activity at 1 µM is 115%.

Q: What about the remaining activity at 1 µM (DYRK3) of the same compound?
A: Its remaining activity at 1 µM is 128%.

Q: And the remaining activity at 1 µM (TLK1)?
A: The remaining activity at 1 µM was 111%.

Q: And the remaining activity at 1 µM (PAK6)?
A: The remaining activity at 1 µM was 118%.

Q: Which remaining activity at 1 µM (OSR1) does the source give for `O=C1Nc2ccc(I)cc2/C1=C/c1cc(Br)c(O)c(Br)c1` [GW5074] here?
A: The remaining activity at 1 µM was 24%.

Q: And the remaining activity at 1 µM (FGF-R1)?
A: The remaining activity at 1 µM was 89%.

Q: And the remaining activity at 1 µM (JAK2)?
A: The remaining activity at 1 µM was 82%.

Q: What about the remaining activity at 1 µM (PKD1) of the same compound?
A: Its remaining activity at 1 µM is 66%.

Q: What about the remaining activity at 1 µM (MARK2) of the same compound?
A: The remaining activity at 1 µM was 49%.

Q: And the remaining activity at 1 µM (PAK4)?
A: Its remaining activity at 1 µM is 94%.

Q: And the remaining activity at 1 µM (CDK2-Cyclin A)?
A: Its remaining activity at 1 µM is 111%.

Q: And the remaining activity at 1 µM (HIPK2)?
A: Its remaining activity at 1 µM is 134%.

Q: What about the remaining activity at 1 µM (SIK2) of the same compound?
A: Its remaining activity at 1 µM is 24%.

Q: And the remaining activity at 1 µM (IR)?
A: The remaining activity at 1 µM was 26%.

Q: What about the remaining activity at 1 µM (DYRK3) of the same compound?
A: Its remaining activity at 1 µM is 14%.

Q: And the remaining activity at 1 µM (TLK1)?
A: The remaining activity at 1 µM was 86%.

Q: What about the remaining activity at 1 µM (PAK6) of the same compound?
A: The remaining activity at 1 µM was 95%.

Q: Which results are given for `Nc1ncc(C(=O)NC2CN(C(=O)C3CC3)C2)c2ccc(-c3cccc(F)c3)nc12` [GNE-495]?
A: residual activity (OSR1; 1 μM): 109%; residual activity (FGF-R1; 1 μM): 119%; residual activity (JAK2; 1 μM): 76%; residual activity (PKD1; 1 μM): 68%; residual activity (MARK2; 1 μM): 42%; residual activity (PAK4; 1 μM): 28%; residual activity (CDK2-Cyclin A; 1 μM): 55%; residual activity (HIPK2; 1 μM): 96%; residual activity (SIK2; 1 μM): 102%; residual activity (IR; 1 μM): 107%; residual activity (DYRK3; 1 μM): 83%; residual activity (TLK1; 1 μM): 77%; residual activity (PAK6; 1 μM): 64%

Q: With `Oc1ncnc2c1c(-c1ccccc1)cn2-c1ccccc1` [F1386-0303, 5,7-diphenyl-7H-pyrrolo[2,3-d]pyrimidin-4-ol] as the compound, how does the remaining activity at 1 µM (OSR1) read?
A: Its remaining activity at 1 µM is 102%.

Q: And the remaining activity at 1 µM (FGF-R1)?
A: Its remaining activity at 1 µM is 99%.

Q: And the remaining activity at 1 µM (JAK2)?
A: The remaining activity at 1 µM was 94%.

Q: What about the remaining activity at 1 µM (PKD1) of the same compound?
A: Its remaining activity at 1 µM is 103%.

Q: And the remaining activity at 1 µM (MARK2)?
A: The remaining activity at 1 µM was 98%.

Q: And the remaining activity at 1 µM (PAK4)?
A: Its remaining activity at 1 µM is 105%.

Q: What about the remaining activity at 1 µM (CDK2-Cyclin A) of the same compound?
A: The remaining activity at 1 µM was 84%.

Q: And the remaining activity at 1 µM (HIPK2)?
A: Its remaining activity at 1 µM is 87%.

Q: And the remaining activity at 1 µM (SIK2)?
A: Its remaining activity at 1 µM is 99%.

Q: What about the remaining activity at 1 µM (IR) of the same compound?
A: Its remaining activity at 1 µM is 118%.

Q: And the remaining activity at 1 µM (DYRK3)?
A: The remaining activity at 1 µM was 101%.

Q: What about the remaining activity at 1 µM (TLK1) of the same compound?
A: Its remaining activity at 1 µM is 103%.

Q: And the remaining activity at 1 µM (PAK6)?
A: The remaining activity at 1 µM was 105%.
